Read-outs that look alike come from different tables or passages of the source. Non-standard residues stand in square brackets, D forms with d. Residues, ends and D or L forms follow the SMILES beside them. *: point of attachment. Lys(Me3) = C[N+](C)(C)CCCC[C@H](N)C(=O)O; Octanoyl = CCCCCCCC(=O)*
Tests used:
[1] = tested on: E. coli ATCC 25922; type: cell-based, Escherichia coli; details: ATCC 25922, 18 h
Outline: (§1)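 Turbidity at 590 nm defined growth, from which the MIC was taken. Cultures at a final density of 5 × 10^5 CFU/mL were exposed to a range of compound levels at 37 °C for 18 h in a CLSI-based microdilution format.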

[2] = tested on: MRSA ATCC 33592; type: cell-based, Staphylococcus aureus; details: ATCC 33592, 18 h
Outline: as §1

[3] = tested on: S. aureus ATCC 29213; type: cell-based, Staphylococcus aureus; details: ATCC 29213, 18 h
Outline: as §1

[4] = tested on: E. faecalis ATCC 29212; type: cell-based, Enterococcus faecalis; details: ATCC 29212, 18 h
Outline: as §1

[5] = tested on: E. coli 94393; test: microbe, parasite or virus in culture; type: cell-based, Escherichia coli; details: 94393, 18 h
Outline: as §1

[6] = tested on: E. coli 94474; test: microbe, parasite or virus in culture; type: cell-based, Escherichia coli; details: 94474, 18 h
Outline: as §1

[7] = tested on: P. aeruginosa PA259-96196; type: cell-based, Pseudomonas aeruginosa; details: for MICUTBLP: UTBLP alone
Outline: (§2)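 Checkerboard synergy assay: antibiotic and OMP combined at varying concentrations with 5 × 10^5 CFU/mL inoculum (final), 37 °C, 18 h; growth read as turbidity at 590 nm. FICI = sum of FICs (MIC in combination / MIC alone); ≤0.5 synergistic, 0.5–4 additive, >4 antagonistic.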

[8] = tested on: P. aeruginosa PAO1; type: cell-based, Pseudomonas aeruginosa; details: for MICUTBLP: UTBLP alone
Outline: as §2

[9] = tested on: A. baumannii 92247; type: cell-based, Acinetobacter baumannii; details: for MICUTBLP: UTBLP alone
Outline: as §2

[10] = tested on: A. baumannii AB027; type: cell-based, Acinetobacter baumannii; details: for MICUTBLP: UTBLP alone
Outline: as §2

[11] = tested on: A. baumannii ATCC 17978; type: cell-based, Acinetobacter baumannii; details: for MICUTBLP: UTBLP alone
Outline: as §2

[12] = tested on: E. cloacae 118564; type: cell-based, Enterobacter cloacae; details: for MICUTBLP: UTBLP alone
Outline: as §2

[13] = tested on: K. pneumoniae 113250; type: cell-based, Klebsiella pneumoniae; details: for MICUTBLP: UTBLP alone
Outline: as §2

[14] = tested on: MRSE 61589; type: cell-based, Staphylococcus epidermidis
Outline: as §2

[15] = tested on: MSSE 81388; type: cell-based, Staphylococcus epidermidis
Outline: as §2

[16] = tested on: E. faecium ATCC 27270; type: cell-based, Enterococcus faecium
Outline: as §2

[17] = UTBLP in combination with novobiocin
[18] = UTBLP in combination with rifampicin
[19] = novobiocin in combination with the UTBLP
[20] = rifampicin in combination with the UTBLP
[21] = UTBLP in combination with chloramphenicol
[22] = UTBLP in combination with niclosamide
[23] = chloramphenicol in combination with the UTBLP
[24] = niclosamide in combination with the UTBLP
[25] = UTBLP alone, plate with chloramphenicol

## CCCCCCCC(=O)NCCCC[C@H](NC(=O)CCCCCCC)C(=O)N[C@@H](CCCC[N+](C)(C)C)C(=O)N[C@@H](CCCC[N+](C)(C)C)C(=O)N[C@@H](CCCC[N+](C)(C)C)C(=O)N[C@@H](CCCC[N+](C)(C)C)C(N)=O [UTBLP 8] (Octanoyl-K(Octanoyl)[Lys(Me3)][Lys(Me3)][Lys(Me3)][Lys(Me3)]-NH2)
[1]
  MIC: >128 µg/mL
[2]
  MIC: >128 µg/mL
[3]
  MIC: >128 µg/mL
[4]
  MIC: 128 µg/mL
[5]
  MIC: 128 µg/mL
[6]
  MIC: > 128 µg/mL
[7]; UTBLP + novobiocin
  Interpretation: Additive (0.5 < x ≤ 4 is additive)
[7]; UTBLP + rifampicin
  Interpretation: Additive (0.5 < x ≤ 4 is additive)
[7]; plate with novobiocin
  MICUTBLP: > 128 µg/mL
[7]; plate with rifampicin
  MICUTBLP: > 128 µg/mL
[7]; [17]
  MICUTBLP [MICcombo]: 16 µg/mL
[7]; [18]
  MICUTBLP [MICcombo]: 16 µg/mL
[7]; [19]
  MICantibiotic [MICcombo]: 1024 µg/mL
[7]; [20]
  MICantibiotic [MICcombo]: 16 µg/mL
[8]; UTBLP + chloramphenicol
  Interpretation: Additive (0.5 < x ≤ 4 is additive)
[8]; UTBLP + niclosamide
  Interpretation: Additive (0.5 < x ≤ 4 is additive)
[8]; UTBLP + novobiocin
  Interpretation: Additive (0.5 < x ≤ 4 is additive)
[8]; UTBLP + rifampicin
  Interpretation: Additive (0.5 < x ≤ 4 is additive)
[8]; plate with chloramphenicol
  MICUTBLP: > 128 µg/mL
[8]; plate with niclosamide
  MICUTBLP: > 128 µg/mL
[8]; plate with novobiocin
  MICUTBLP: > 128 µg/mL
[8]; plate with rifampicin
  MICUTBLP: > 128 µg/mL
[8]; [21]
  MICUTBLP [MICcombo]: 0.25 µg/mL
[8]; [22]
  MICUTBLP [MICcombo]: 0.25 µg/mL
[8]; [17]
  MICUTBLP [MICcombo]: 0.25 µg/mL
[8]; [18]
  MICUTBLP [MICcombo]: 0.25 µg/mL
[8]; [23]
  MICantibiotic [MICcombo]: 16 µg/mL
[8]; [24]
  MICantibiotic [MICcombo]: 1024 µg/mL
[8]; [19]
  MICantibiotic [MICcombo]: 512 µg/mL
[8]; [20]
  MICantibiotic [MICcombo]: 16 µg/mL
[9]; UTBLP + novobiocin
  Interpretation: Synergy (FICI ≤ 0.5 is synergistic)
[9]; UTBLP + rifampicin
  Interpretation: Synergy (FICI ≤ 0.5 is synergistic)
[9]; plate with novobiocin
  MICUTBLP: 128 µg/mL
[9]; plate with rifampicin
  MICUTBLP: 128 µg/mL
[9]; [17]
  MICUTBLP [MICcombo]: 16 µg/mL
[9]; [18]
  MICUTBLP [MICcombo]: 16 µg/mL
[9]; [19]
  MICantibiotic [MICcombo]: 0.125 µg/mL
[9]; [20]
  MICantibiotic [MICcombo]: 0.5 µg/mL
[10]; UTBLP + novobiocin
  Interpretation: Synergy (FICI ≤ 0.5 is synergistic)
[10]; UTBLP + rifampicin
  Interpretation: Synergy (FICI ≤ 0.5 is synergistic)
[10]; plate with novobiocin
  MICUTBLP: > 128 µg/mL
[10]; plate with rifampicin
  MICUTBLP: > 128 µg/mL
[10]; [17]
  MICUTBLP [MICcombo]: 16 µg/mL
[10]; [18]
  MICUTBLP [MICcombo]: 16 µg/mL
[10]; [19]
  MICantibiotic [MICcombo]: 2 µg/mL
[10]; [20]
  MICantibiotic [MICcombo]: 0.25 µg/mL
[11]; UTBLP + chloramphenicol
  Interpretation: Additive (0.5 < x ≤ 4 is additive)
[11]; UTBLP + niclosamide
  Interpretation: Synergy (FICI ≤ 0.5 is synergistic)
[11]; UTBLP + novobiocin
  Interpretation: Synergy (FICI ≤ 0.5 is synergistic)
[11]; UTBLP + rifampicin
  Interpretation: Synergy (FICI ≤ 0.5 is synergistic)
[11]; plate with chloramphenicol
  MICUTBLP: > 128 µg/mL
[11]; plate with niclosamide
  MICUTBLP: > 128 µg/mL
[11]; plate with novobiocin
  MICUTBLP: > 128 µg/mL
[11]; plate with rifampicin
  MICUTBLP: > 128 µg/mL
[11]; [21]
  MICUTBLP [MICcombo]: 0.25 µg/mL
[11]; [22]
  MICUTBLP [MICcombo]: 2 µg/mL
[11]; [17]
  MICUTBLP [MICcombo]: 16 µg/mL
[11]; [18]
  MICUTBLP [MICcombo]: 16 µg/mL
[11]; [23]
  MICantibiotic [MICcombo]: 64 µg/mL
[11]; [24]
  MICantibiotic [MICcombo]: 16 µg/mL
[11]; [19]
  MICantibiotic [MICcombo]: 4 µg/mL
[11]; [20]
  MICantibiotic [MICcombo]: 0.25 µg/mL
[12]; UTBLP + novobiocin
  Interpretation: Synergy (FICI ≤ 0.5 is synergistic)
[12]; UTBLP + rifampicin
  Interpretation: Additive (0.5 < x ≤ 4 is additive)
[12]; plate with novobiocin
  MICUTBLP: > 128 µg/mL
[12]; plate with rifampicin
  MICUTBLP: > 128 µg/mL
[12]; [17]
  MICUTBLP [MICcombo]: 16 µg/mL
[12]; [18]
  MICUTBLP [MICcombo]: 16 µg/mL
[12]; [19]
  MICantibiotic [MICcombo]: 32 µg/mL
[12]; [20]
  MICantibiotic [MICcombo]: 4 µg/mL
[13]; UTBLP + novobiocin
  Interpretation: Synergy (FICI ≤ 0.5 is synergistic)
[13]; UTBLP + rifampicin
  Interpretation: Synergy (FICI ≤ 0.5 is synergistic)
[13]; plate with novobiocin
  MICUTBLP: > 128 µg/mL
[13]; plate with rifampicin
  MICUTBLP: > 128 µg/mL
[13]; [17]
  MICUTBLP [MICcombo]: 16 µg/mL
[13]; [18]
  MICUTBLP [MICcombo]: 16 µg/mL
[13]; [19]
  MICantibiotic [MICcombo]: 32 µg/mL
[13]; [20]
  MICantibiotic [MICcombo]: 4 µg/mL
[14]; UTBLP + chloramphenicol
  Interpretation: Additive (0.5 < x ≤ 4 is additive)
[14]; [25]
  MICUTBLP: 128 µg/mL
[14]; [21]
  MICUTBLP [MICcombo]: 0.25 µg/mL
[14]; [23]
  MICchloramphenicol [MICcombo]: 8 µg/mL
[15]; UTBLP + chloramphenicol
  Interpretation: Additive (0.5 < x ≤ 4 is additive)
[15]; [25]
  MICUTBLP: 128 µg/mL
[15]; [21]
  MICUTBLP [MICcombo]: 0.25 µg/mL
[15]; [23]
  MICchloramphenicol [MICcombo]: 4 µg/mL
[16]; UTBLP + chloramphenicol
  Interpretation: Additive (0.5 < x ≤ 4 is additive)
[16]; [25]
  MICUTBLP: > 128 µg/mL
[16]; [21]
  MICUTBLP [MICcombo]: 0.25 µg/mL
[16]; [23]
  MICchloramphenicol [MICcombo]: 4 µg/mL

Reference: paper PMC8963254, “Effects of Lysine N-ζ-Methylation in Ultrashort Tetrabasic Lipopeptides (UTBLPs) on the Potentiation of Rifampicin, Novobiocin, and Niclosamide in Gram-Negative Bacteria” (Antibiotics, 2022)
